Reference: ChEMBL document CHEMBL1201862, “PubChem BioAssay data set” (2004)
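Where inhibition never reached the appropriate level, the endpoint shown equals the highest concentration tested. Otherwise, values were interpolated linearly from a five-concentration, 48-hour dose response in 96-well plates. At the GI50, growth is halved.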 The source made the active and inactive calls. Cut-off read from the data, not from the text of the source: active = GI50 up to about 1.1 µM and inactive = higher. Where a SMILES comes first, the peptide text is derived from it. [ ]: non-standard residue; d: D form. The star is where a group is joined. NMeF = CN[CH](Cc1ccccc1)C(=O)O; NMeV = CN[CH](C(=O)O)C(C)C; Boc = CC(C)(C)OC(=O)*; OBn = c1ccc(CO*)cc1

Tests used:
Assay in all cases: DTP human tumour cell line panel, 48 h
[1] = tested on: NCI-H23
[2] = tested on: A549
[3] = tested on: Malme-3M
[4] = tested on: KM12
[5] = tested on: NCI-H460
[6] = tested on: OVCAR-3
[7] = tested on: 786-0
[8] = tested on: OVCAR-4
[9] = tested on: MOLT-4
[10] = tested on: RXF 393
[11] = tested on: K562
[12] = tested on: SK-OV-3
[13] = tested on: ACHN
[14] = tested on: COLO 205
[15] = tested on: SNB-19
[16] = tested on: HCC 2998
[17] = tested on: HOP-62
[18] = tested on: SR

Measured: GI50

CC(C)(CN1CCCCC1)C(=O)CC(SCCN)c1ccc(Cl)cc1 (configuration not stated)
inactive: [1] 1.95 µM | [2] 2.88 µM | [3] 3.1 µM | [4] 1.88 µM | [5] 2.11 µM | [6] 1.55 µM | [7] 1.61 µM | [8] 3.1 µM | [9] 1.72 µM | [10] 1.81 µM | [11] 1.18 µM | [12] 2.6 µM | [13] 2.78 µM | [14] 1.6 µM | [15] 1.78 µM | [16] 1.85 µM | [17] 3.78 µM

O=Cc1ccccc1COC(=O)c1cc(C(=O)OCc2ccccc2C=O)c(C(=O)OCc2ccccc2C=O)cc1C(=O)OCc1ccccc1C=O
inactive: [1] > 100 µM | [2] > 100 µM | [3] > 100 µM | [4] > 100 µM | [5] > 100 µM | [6] > 100 µM | [18] 29.5 µM | [7] 23.6 µM | [8] > 100 µM | [9] 30.3 µM | [10] 31.3 µM | [11] 39.8 µM | [12] > 100 µM | [13] > 100 µM | [14] > 100 µM | [15] > 100 µM | [16] > 100 µM

CC(=O)O[C@]12CCCC1C1(O)C(O)CCCC12 (some centres not stated)
inactive: [1] > 100 µM | [2] > 100 µM | [3] > 100 µM | [4] > 100 µM | [5] > 100 µM | [18] > 100 µM | [7] > 100 µM | [8] > 100 µM | [9] > 100 µM | [10] > 100 µM | [11] > 100 µM | [12] > 100 µM | [13] > 100 µM | [14] > 100 µM | [15] > 100 µM | [17] > 100 µM

Clc1cc(Cl)c2n[se]nc2c1
inactive: [1] > 100 µM | [2] > 100 µM | [3] > 100 µM | [4] > 100 µM | [5] > 100 µM | [18] > 100 µM | [7] > 100 µM | [8] > 100 µM | [9] > 100 µM | [10] > 100 µM | [11] > 100 µM | [12] > 100 µM | [13] > 100 µM | [15] > 100 µM | [16] > 100 µM | [17] > 100 µM

Cc1nc(-c2cccnc2)sc1C(=O)/C=C/c1ccc(Cl)cc1Cl
inactive: [1] > 100 µM | [2] > 100 µM | [3] > 100 µM | [4] > 100 µM | [5] > 100 µM | [6] > 100 µM | [7] > 100 µM | [9] 73.6 µM | [10] 53.8 µM | [11] 76.4 µM | [12] > 100 µM | [13] > 100 µM | [14] > 100 µM | [16] > 100 µM | [17] > 100 µM

O=C(OC1CCC(=C2SCCCS2)[C@H]1C1SCCCS1)c1ccccc1 (some centres not stated)
inactive: [1] > 100 µM | [2] > 100 µM | [3] 94.6 µM | [4] > 100 µM | [5] > 100 µM | [6] > 100 µM | [7] > 100 µM | [8] 84.5 µM | [9] > 100 µM | [10] 67.1 µM | [11] 75 µM | [12] > 100 µM | [13] > 100 µM | [14] > 100 µM | [15] > 100 µM | [16] > 100 µM | [17] > 100 µM

O=c1ncccn1C1OC(CO)C(O)C1O (configuration not stated)
inactive: [1] > 100 µM | [2] > 100 µM | [3] > 100 µM | [4] > 100 µM | [5] > 100 µM | [7] > 100 µM | [8] > 100 µM | [10] > 100 µM | [11] > 100 µM | [12] > 100 µM | [13] > 100 µM | [14] > 100 µM | [15] 91.8 µM | [16] > 100 µM

CC(C)C(NC(=O)OC(C)(C)C)C(=O)N(C)C(Cc1ccccc1)C(=O)N(C)C(C(=O)N(C)C(C(=O)OCc1ccccc1)C(C)C)C(C)C (configuration not stated) (Boc-V[NMeF][NMeV][NMeV]-OBn; configuration not given here)
inactive: [1] > 100 µM | [2] > 100 µM | [3] 24.8 µM | [4] > 100 µM | [5] > 100 µM | [6] > 100 µM | [18] 20.8 µM | [7] > 100 µM | [9] 4.81 µM | [11] > 100 µM | [13] 26.4 µM | [14] > 100 µM | [15] > 100 µM | [16] 44.2 µM | [17] > 100 µM
